# Legend:
# Format in all cases: cell-based
# [1] = test system: flotillin-1 (marker protein of lipid rafts), SH-SY5Y cell; assay: Immunoblotting of lipid raft marker flotillin-1 in sucrose density-gradient cell membrane fractions; details: for flotillin in the lipid rafts fraction (structure of lipid rafts): 48 hours, FIG. 3D
# Experimental: (§1) SH-SY5Y cell line (Invitrogen) was subcultured in a complete medium (DMEM (Sigma) containing 10% of fetal bovine serum (Sigma), 100 units/mL of penicillin and […] of streptomycin) using a dish of 15 cm diameter at 37° C.
# (§2) The SH-SY5Y cell was cultured in a dish of 15 cm diameter, and the cells reached confluent growth in the dish was washed with phosphate buffered saline (PBS). The cells were detached from the dish using cell scraper and recovered in PBS, then centrifuged at 9807 m/s^2 for 5 minutes. The precipitated cells were suspended in buffer R (20 mM Tris-HCl pH 7.6, 150 mM NaCl, 1 mM EDTA) containing 200 μL of a mixture of 2% CHAPSO and proteases (Complete protease mixture) (Roche). Solubilization of the cell was performed by means of leaving the cell suspension for standing on an ice bath for 20 minutes. After solubilizing, 800 μL of the buffer R containing 56.25% sucrose was added to make the final concentration to be 45% sucrose and 0.4% CHAPSO, and placed in the bottom of centrifuging tube. Further, 3 mL of the buffer R containing 35% sucrose and 1 mL of the buffer R containing 5% sucrose were overlaid sequentially on top of the layers. After centrifugation at 980700 m/s^2 (32000 rpm) for 16 hours at 4° C. using Beckman ultracentrifuge equipped with SW55 rotor, each 500 μL aliquot was withdrawn from top as fractions.
# (§3) After SDS-polyacrylamide gel electrophoresis was carried out for each fraction obtained in the Reference Example 2, immunoblotting was performed. The antibodies used were nicastrin N-19 (Santa Cruz) as a nicastrin recognizing antibody, anti-G1L3 as an antibody recognizing C-terminal region of presenilin 1, anti-G2L as an antibody recognizing C-terminal region of presenilin 2, anti-PNT3 as a PEN-2 recognizing antibody, Flotillin-1 (BD Sciences) as a flotillin-1 recognizing antibody, and Calnexin (BD Biosciences) as a calnexin recognizing antibody.
# After reacting at room temperature for 1 hour or at 4° C. overnight, the gels were washed twice with TBS-Tween (20 mM Tris-buffered saline, pH 7.4, 0.05% Tween 20). […]
# [2] = test system: cholesterol in lipid rafts of SH-SY5Y cell; assay: Quantification of cholesterol content in sucrose density-gradient cell membrane fractions (lipid rafts = fraction 3); details: for cholesterol content in lipid rafts (fraction 3): 5% LPDS, 48 hours, FIG. 4
# Experimental: as §1, §2
# (§4) The SH-SY5Y cell was cultured in a dish of 15 cm diameter, and the cells reached confluent growth in the dish were washed with PBS. After that, methyl-β-cyclodextrin (Sigma) dissolved in DMEM to make the final concentration to be 0 to 2 mM was added to the dish, and cultured at 37° C. for another 30 minutes. These cells were processed and fractionated according to the method described in the Reference Example 2, and subjected to the immunoblotting.
# The SH-SY5Y cell was cultured in a dish of 15 cm diameter and the cells of just before arriving confluent growth in a dish were washed with PBS. […]
# [3] = test system: active complex of γ-secretase (nicastrin, presenilin-1, presenilin-2, Pen-2) in lipid rafts of SH-SY5Y cell; assay: Immunoblotting of γ-secretase constituents in sucrose density-gradient cell membrane fractions; details: for constituents of γ-secretase (nicastrin, presenilin-1, presenilin-2) in lipid rafts fraction (fraction 3): FIG. 3A-3C
# Experimental: as §1, §2, §3
# After reacting at room temperature for 1 hour or at 4° C. overnight, the gels were washed twice with TBS-Tween (20 mM Tris-buffered saline, pH 7.4, 0.05% Tween 20). Then, the gels were reacted with HRP-conjugated anti mouse IgG antibody, anti goat IgG antibody, or anti rabbit IgG antibody each for 1 hour, and washed with TBS-Tween. And then, an X-ray film was exposed to the chemiluminescence generated using SuperSignal West Dura (Pierce).
# as §4
# The SH-SY5Y cell was cultured in a dish of 15 cm diameter and the cells of just before arriving confluent growth in a dish were washed with PBS. After that, the cells were cultured in DMEM containing 5% of LPDS, 250 μM of mevalonic acid and 50 μM of compactin or 5 μM of pitavastatin as a cholesterol synthesis inhibitor for 48 hours. These cells were processed and fractionated according to the method described in the Reference Example 2, and subjected to the immunoblotting.
# [4] = 5 μM pitavastatin plus 250 μM mevalonic acid
# [5] = 5 μM pitavastatin plus 250 μM mevalonic acid, 48 hours
# [6] = 50 μM compactin plus 250 μM mevalonic acid
# [7] = 50 μM compactin plus 250 μM mevalonic acid, 48 hours
compound,measurement,setting,value
methyl-β-cyclodextrin,distribution of flotillin (marker protein of lipid rafts) among fractions / raft structure,"[1]; methyl-β-cyclodextrin 0 to 2 mM, 30 minutes, FIG. 1E",moved from the original position of the lipid rafts of fraction 3 to fraction 9 and 10
same,cholesterol in lipid rafts (fraction 3),"[2]; methyl-β-cyclodextrin 0 to 2 mM, 30 minutes, 37° C., FIG. 2",removed from lipid rafts
same,formation of an active complex of γ-secretase in lipid rafts,"[3]; methyl-β-cyclodextrin 0 to 2 mM, 30 minutes",inhibited the formation of an active complex of γ-secretase in lipid rafts
same,"constituents of γ-secretase (nicastrin, presenilin-1, presenilin-2, Pen-2) in lipid rafts fraction (fraction 3)","[3]; methyl-β-cyclodextrin 0 to 2 mM, 30 minutes, FIG. 1A-1D",disappeared from lipid rafts fraction
"O=C(O)C[C@H](O)C[C@H](O)/C=C/c1c(C2CC2)nc2ccccc2c1-c1ccc(F)cc1 [pitavastatin, (3R,5S,6E)-7-[2-cyclopropyl-4-(4-fluorophenyl)-3-quinolyl]-3,5-dihydroxy-6-heptenoic acid]",flotillin in the lipid rafts fraction (structure of lipid rafts),[1]; [4],still remained in the lipid rafts fraction
same,cholesterol content in lipid rafts (fraction 3),[2]; [4],decreased
same,formation of an active complex of γ-secretase in lipid rafts,[3]; [5],inhibited the formation of an active complex of γ-secretase in lipid rafts
same,"constituents of γ-secretase (nicastrin, presenilin-1, presenilin-2) in lipid rafts fraction (fraction 3)",[3]; [5],disappeared from lipid rafts fraction
"CC[C@H](C)C(=O)O[C@H]1CCC=C2C=C[C@H](C)[C@H](CC[C@@H]3C[C@@H](O)CC(=O)O3)[C@H]21 [compactin, (+)-(1S,3R,7S,8S.8aR)-1,2,3,7,8,8a-hexahydro-7-methyl-8-[2-[(2R,4R)-tetrahydro-4-hydroxy-6-oxo-2H-pyran-2-yl]ethyl]-1-naphthyl (S)-2-methylbutyrate]",flotillin in the lipid rafts fraction (structure of lipid rafts),[1]; [6],still remained in the lipid rafts fraction
same,cholesterol content in lipid rafts (fraction 3),[2]; [6],decreased
same,formation of an active complex of γ-secretase in lipid rafts,[3]; [7],inhibited the formation of an active complex of γ-secretase in lipid rafts
same,"constituents of γ-secretase (nicastrin, presenilin-1, presenilin-2) in lipid rafts fraction (fraction 3)",[3]; [7],disappeared from lipid rafts fraction
